Results: ChEMBL document CHEMBL3885881, “DrugMatrix”

Species on record: Rattus norvegicus
Assay: DrugMatrix - Regimen: Daily Repeat
Assay type: toxicity, organism-based, Sprague-Dawley
Set-up: regimen Daily Repeat, gender Male, age 6-8 weeks
Conditions: in vivo, po, route oral GAVAGE, […]; for ABSOLUTE BASOPHIL / ABSOLUTE EOSINOPHIL / ABSOLUTE LYMPHOCYTE / ABSOLUTE MONOCYTE / ABSOLUTE SEGMENTED NEUTROPHIL / BASOPHIL / EOSINOPHIL / ERYTHROCYTE COUNT / HEMATOCRIT / HEMOGLOBIN / LEUKOCYTE COUNT / LYMPHOCYTE / MEAN CORPUSCULAR HEMOGLOBIN / MEAN CORPUSCULAR HEMOGLOBIN CONCENTRATION / MEAN CORPUSCULAR VOLUME / MONOCYTE / NEUTROPHIL / NUCLEATED RED BLOOD CELLS / PLATELET COUNT: tissue Blood; for ALANINE AMINOTRANSFERASE / ALBUMIN / ALKALINE PHOSPHATASE / ASPARTATE AMINOTRANSFERASE / BLOOD UREA NITROGEN / CARBON DIOXIDE / CHLORIDE / CHOLESTEROL / CREATINE PHOSPHOKINASE / CREATININE / GLUCOSE / LACTATE DEHYDROGENASE / LIPASE / PHOSPHORUS / POTASSIUM / SODIUM / TOTAL BILIRUBIN / TOTAL PROTEIN / URIC ACID: tissue Plasma
[1] = 0 mg/kg, 72 h, dose level Control, time 3 day
[2] = 0 mg/kg, 120 h, dose level Control, time 5 day
[3] = 6 mg/kg, 72 h, dose level Low, time 3 day

## CO[C@H]1O[C@@H]2O[C@@]3(C)CC[C@H]4[C@H](C)CC[C@@H]([C@H]1C)[C@@]24OO3
[1]
  ABSOLUTE BASOPHIL: 0 CELLS/uL
  ABSOLUTE EOSINOPHIL: 138.5 CELLS/uL
  ABSOLUTE LYMPHOCYTE: 13978.67 CELLS/uL
  ABSOLUTE MONOCYTE: 391 CELLS/uL
  ABSOLUTE SEGMENTED NEUTROPHIL: 1608.5 CELLS/uL
  BASOPHIL: 0%
  EOSINOPHIL: 1%
  ERYTHROCYTE COUNT: 5.8 x10E6/uL
  HEMATOCRIT: 36.22%
  HEMOGLOBIN: 13.65 G/DL
  LEUKOCYTE COUNT: 16.12 x10E3/uL
  LYMPHOCYTE: 86.67%
  MEAN CORPUSCULAR HEMOGLOBIN: 23.58 pg
  MEAN CORPUSCULAR HEMOGLOBIN CONCENTRATION: 37.72 G/DL
  MEAN CORPUSCULAR VOLUME: 62.52 fL
  MONOCYTE: 2.5%
  NEUTROPHIL: 9.83%
  NUCLEATED RED BLOOD CELLS: 0 /100WBC
  PLATELET COUNT: 1214.17 x10E3/uL
  ALANINE AMINOTRANSFERASE: 59.5 u/L
  ALBUMIN: 4.1 G/DL
  ALKALINE PHOSPHATASE: 393.83 u/L
  ASPARTATE AMINOTRANSFERASE: 87.83 u/L
  BLOOD UREA NITROGEN: 16.33 mg/dL
  CARBON DIOXIDE: 28.17 mmol/L
  CHLORIDE: 100.83 MEQ/L
  CHOLESTEROL: 73.33 mg/dL
  CREATINE PHOSPHOKINASE: 398 u/L
  CREATININE: 0.2 mg/dL
  GLUCOSE: 152.67 mg/dL
  LACTATE DEHYDROGENASE: 501.5 u/L
  LIPASE: 9.5 u/L
  PHOSPHORUS: 10.77 mg/dL
  POTASSIUM: 6.44 MEQ/L
  SODIUM: 143.4 MEQ/L
  TOTAL BILIRUBIN: 0.17 mg/dL
  TOTAL PROTEIN: 5.92 G/DL
  URIC ACID: 1.68 mg/dL
[2]
  ABSOLUTE BASOPHIL: 0 CELLS/uL
  ABSOLUTE EOSINOPHIL: 183.33 CELLS/uL
  ABSOLUTE LYMPHOCYTE: 14952.83 CELLS/uL
  ABSOLUTE MONOCYTE: 238.5 CELLS/uL
  ABSOLUTE SEGMENTED NEUTROPHIL: 1642 CELLS/uL
  BASOPHIL: 0%
  EOSINOPHIL: 1%
  ERYTHROCYTE COUNT: 5.89 x10E6/uL
  HEMATOCRIT: 36.13%
  HEMOGLOBIN: 13.37 G/DL
  LEUKOCYTE COUNT: 17.02 x10E3/uL
  LYMPHOCYTE: 87.17%
  MEAN CORPUSCULAR HEMOGLOBIN: 22.73 pg
  MEAN CORPUSCULAR HEMOGLOBIN CONCENTRATION: 37.02 G/DL
  MEAN CORPUSCULAR VOLUME: 61.45 fL
  MONOCYTE: 1.5%
  NEUTROPHIL: 10.33%
  NUCLEATED RED BLOOD CELLS: 0 /100WBC
  PLATELET COUNT: 1183.5 x10E3/uL
  ALANINE AMINOTRANSFERASE: 54.83 u/L
  ALBUMIN: 4.28 G/DL
  ALKALINE PHOSPHATASE: 363.17 u/L
  ASPARTATE AMINOTRANSFERASE: 96.83 u/L
  BLOOD UREA NITROGEN: 15.67 mg/dL
  CARBON DIOXIDE: 26.17 mmol/L
  CHLORIDE: 102.67 MEQ/L
  CHOLESTEROL: 63.67 mg/dL
  CREATINE PHOSPHOKINASE: 594.33 u/L
  CREATININE: 0.2 mg/dL
  GLUCOSE: 182.33 mg/dL
  LACTATE DEHYDROGENASE: 656.5 u/L
  LIPASE: 9.33 u/L
  PHOSPHORUS: 11.7 mg/dL
  POTASSIUM: 5.92 MEQ/L
  SODIUM: 142.62 MEQ/L
  TOTAL BILIRUBIN: 0.13 mg/dL
  TOTAL PROTEIN: 5.85 G/DL
  URIC ACID: 1.8 mg/dL
[3]
  ABSOLUTE BASOPHIL: 0 CELLS/uL
  ABSOLUTE EOSINOPHIL: 0 CELLS/uL
  ABSOLUTE LYMPHOCYTE: 14690 CELLS/uL
  ABSOLUTE MONOCYTE: 490.33 CELLS/uL
  ABSOLUTE SEGMENTED NEUTROPHIL: 1319.67 CELLS/uL
  BASOPHIL: 0%
  EOSINOPHIL: 0%
  ERYTHROCYTE COUNT: 5.7 x10E6/uL
  HEMATOCRIT: 36.23%
  HEMOGLOBIN: 13.63 G/DL
  LEUKOCYTE COUNT: 16.5 x10E3/uL
  LYMPHOCYTE: 88.67%
  MEAN CORPUSCULAR HEMOGLOBIN: 23.93 pg
  MEAN CORPUSCULAR HEMOGLOBIN CONCENTRATION: 37.67 G/DL
  MEAN CORPUSCULAR VOLUME: 63.6 fL
  MONOCYTE: 3%
  NEUTROPHIL: 8.33%
  NUCLEATED RED BLOOD CELLS: 0 /100WBC
  PLATELET COUNT: 1120 x10E3/uL
  ALANINE AMINOTRANSFERASE: 66.67 u/L
  ALBUMIN: 4.17 G/DL
  ALKALINE PHOSPHATASE: 405.67 u/L
  ASPARTATE AMINOTRANSFERASE: 88.33 u/L
  BLOOD UREA NITROGEN: 16.33 mg/dL
  CARBON DIOXIDE: 25.67 mmol/L
  CHLORIDE: 103 MEQ/L
  CHOLESTEROL: 70.33 mg/dL
  CREATINE PHOSPHOKINASE: 249.33 u/L
  CREATININE: 0.21 mg/dL
  GLUCOSE: 155.33 mg/dL
  LACTATE DEHYDROGENASE: 155 u/L
  LIPASE: 9.33 u/L
  PHOSPHORUS: 11.6 mg/dL
  POTASSIUM: 6.23 MEQ/L
  SODIUM: 145.23 MEQ/L
  TOTAL BILIRUBIN: 0.2 mg/dL
  TOTAL PROTEIN: 5.8 G/DL
  URIC ACID: 1.47 mg/dL
